The text below walks through data of patent US7772246B2 (Pfizer Inc., priority 2007, dated 2010).

The target of one test is T1, b-Raf (Homo sapiens, UniProt P15056, V600E).
T1 construct: endogenous in cells; host or cells: A2058 human melanoma cells
T1 sequence (P15056 whole entry V600E): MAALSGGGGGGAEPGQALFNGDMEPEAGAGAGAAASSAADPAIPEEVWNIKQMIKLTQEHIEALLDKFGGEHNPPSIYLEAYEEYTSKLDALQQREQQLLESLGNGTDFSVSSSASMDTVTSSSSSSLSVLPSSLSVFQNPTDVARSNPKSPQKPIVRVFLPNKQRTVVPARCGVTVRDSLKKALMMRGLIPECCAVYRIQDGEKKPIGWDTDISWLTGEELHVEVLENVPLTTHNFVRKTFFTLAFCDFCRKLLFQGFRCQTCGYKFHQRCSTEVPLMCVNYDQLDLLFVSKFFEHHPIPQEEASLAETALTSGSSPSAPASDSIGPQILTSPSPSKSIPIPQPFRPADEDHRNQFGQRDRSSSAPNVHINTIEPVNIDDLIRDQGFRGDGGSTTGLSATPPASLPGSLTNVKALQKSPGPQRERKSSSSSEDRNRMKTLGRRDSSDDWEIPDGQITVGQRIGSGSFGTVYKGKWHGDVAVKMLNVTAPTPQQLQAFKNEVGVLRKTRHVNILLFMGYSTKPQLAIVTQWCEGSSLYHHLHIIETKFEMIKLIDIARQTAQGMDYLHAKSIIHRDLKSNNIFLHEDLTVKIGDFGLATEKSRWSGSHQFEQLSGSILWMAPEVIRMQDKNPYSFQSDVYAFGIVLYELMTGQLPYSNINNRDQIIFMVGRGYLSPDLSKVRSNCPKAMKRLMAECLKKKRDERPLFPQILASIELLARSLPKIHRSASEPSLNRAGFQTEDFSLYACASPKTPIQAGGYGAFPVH
Kind of test: Raf cellular assay (phospho-Mek1/2 ELISA in A2058 cells). It is filed as cell-based. To be noted: Table 2; human melanoma A2058 cells (b-Raf mutation), Mek1/2 Ser217/221 phosphorylation, 1 hour incubation; read-out: pMEK IC50. On the procedure: Compounds of the present invention were evaluated for potency against b-Raf using a cellular assay as follows. The activity of Raf kinases in cells is determined by measuring the level of phosphorylation of Mek1/2 at serine 217/221, the site phosphorylated by Raf kinases in vivo. Mek1/2 Ser phosphorylation is measured using anti-phospho-Mek1/2 antibodies (Cell Signaling #9121) in an ELISA format.
Healthy growing human melanoma A2058 cells (harboring a b-Raf mutation) are used for the assay. A2058 cells are grown in 10% FBS DMEM medium. When the cells are near 85%+confluence, the cells are rinsed with PBS once and trypsinized with trypsin/EDTA for 3 minutes. The cells are resuspended in 10% FBS DMEM and are centrifuged down at 1000 rpm for 5 minutes. The cells are resuspended in 10% FBS DMEM and counted on a cell counter. The cells are seeded at 50,000 cells/well in a volume of 100 μL/well in 10% FBS DMEM in a 96 well flat-bottom plate. The negative control wells receive only 100 μL of 10% FBS DMEM medium without cells. The plate is incubated overnight in a cell culture incubator with 5% CO2 at 37° C.
On day 2, testing compounds are prepared in 10% FBS DMEM medium and serially diluted at 1:3 for 11 test concentrations. Each concentration of the compounds is tested in duplicate. The compound solutions are added at 25 μL/well to the corresponding wells in the cell plate, and 25 μL/well of the vehicle (0.5% DMSO in 10% FBS DMEM) is added to the negative control wells (no cells) and the positive control wells (cells without compounds). The plate is incubated for 1 hour in a cell culture incubator with 5% CO2 at 37° C. After 1 hour of incubation, the medium is removed, 100 μL/well of cell lysis buffer is added into the cell plate, and the plate is shaken for 15 minutes at room temperature. After 15 minutes, the cell lysates are transferred to an ELISA plate (pre-coated with anti-Mek1 anti-body, Cell Signaling #2352), and the plate is incubated with gentle shaking for 2 hours at room temperature. After 2 hours, the contents of the wells are aspirated and the wells are washed 4 times with wash buffer. 100 μL of phospho-Mek1/2 detection antibody (Cell Signaling #9121) is added into each well and the plate is incubated with gentle shaking for 1 hour at room temperature. After 1 hour, the wells are aspirated and washed 4 times with wash buffer. 100 μL of anti-rabbit IgG HRP-linked antibody (Cell Signaling #7074) is added to each well, and the plate is incubated with gentle shaking for 1 hour at room temperature. After 1 hour, the contents of the wells are aspirated and the wells are washed 4 times with wash buffer. 100 μL of TMB substrate solution (Sigma #T0440) is added into each well, and the plate is incubated with gentle shaking at room temperature for 10 to 20 minutes. After color development, 100 μL of stop solution (1N hydrochloric acid) is added to each well to terminate color development. The plate is read at 450 nm on an ELISA plate reader.
In the case of `Cc1cn2cc(-c3nn(C(C)C)cc3-c3ccnc(NC[C@H](C)O)n3)cnc2n1` [Example B-8, (2S)-1-(4-(1-isopropyl-3-(2-methylimidazo[1,2-a]pyrimidin-6-yl)-1H-pyrazol-4-yl)pyrimidin-2-ylamino)propan-2-ol], the IC50 worked out at 8490 nM.

The same test, now with this note: Table 3; human melanoma A2058 cells (b-Raf mutation), Mek1/2 Ser217/221 phosphorylation, 1 hour incubation; read-out: pMEK IC50.
With `COc1ccc(Nc2nccc(-c3cn(CC(F)F)nc3-c3cnc4[nH]ccc4c3)n2)cn1` [Example B-81, 4-[1-(2,2-difluoroethyl)-3-(1H-pyrrolo[2,3-b]pyridin-5-yl)-1H-pyrazol-4-yl]-N-(6-methoxypyridin-3-yl)pyrimidin-2-amine], the IC50 turned out to be 71.5 nM.
As to `COc1cc(-c2nn(C3CCOCC3)cc2-c2ccnc(NCC(F)F)n2)cnc1N` [Example B-70, 4-[3-(6-amino-5-methoxypyridin-3-yl)-1-(tetrahydro-2H-pyran-4-yl)-1H-pyrazol-4-yl]-N-(2,2-difluoroethyl)-pyrimidin-2-amine], the half-maximal inhibitory concentration (IC50) was found to be 2.33 nM.
In the case of `Nc1nccc(-c2cn(CC(F)F)nc2-c2cnc3[nH]cc(Cl)c3c2)n1` [Example B-107, 4-[3-(3-chloro-1H-pyrrolo[2,3-b]pyridin-5-yl)-1-(2,2-difluoroethyl)-1H-pyrazol-4-yl]pyrimidin-2-amine], the IC50 was 8.06 nM.
As for `C[C@H](O)CNc1nccc(-c2cn(CC(F)F)nc2-c2ccnc3[nH]ccc23)n1` [Example B-29, (2S)-1-({4-[1-(2,2-difluoroethyl)-3-(1H-pyrrolo[2,3-b]pyridin-4-yl)-1H-pyrazol-4-yl]pyrimidin-2-yl}amino)propan-2-ol], the IC50 stood at 9390 nM.
The same measure, in the same setting: to `CC(C)(O)CNc1nccc(-c2cn(CC(F)F)nc2-c2cnc3c(c2)CCN3)n1` [Example B-89, 1-(4-(1-(2,2-difluoroethyl)-3-(2,3-dihydro-1H-pyrrolo[2,3-b]pyridin-5-yl)-1H-pyrazol-4-yl)pyrimidin-2-ylamino)-2-methylpropan-2-ol] belongs 284 nM; to `OCCNc1nccc(-c2cn(CC(F)F)nc2-c2cnc3[nH]cc(Cl)c3c2)n1` [Example B-106, 2-({4-[3-(3-chloro-1H-pyrrolo[2,3-b]pyridin-5-yl)-1-(2,2-difluoroethyl)-1H-pyrazol-4-yl]pyrimidin-2-yl}amino)ethanol], 10.5 nM.
The same measure, in the same setting: to `Cc1c[nH]c2ncc(-c3nn(C(C)(C)CO)cc3-c3ccnc(NCCC#N)n3)cc12` [Example B-23, 3-({4-[1-(2-hydroxy-1,1-dimethylethyl)-3-(3-methyl-1H-pyrrolo[2,3-b]pyridin-5-yl)-1H-pyrazol-4-yl]pyrimidin-2-yl}amino)propanenitrile] belongs 0.428 nM; to `COc1cc(-c2nn(C)cc2-c2ccnc(NCCC#N)n2)cnc1N` [Example G-2, 3-({4-[3-(6-amino-5-methoxypyridin-3-yl)-1-methyl-1H-pyrazol-4-yl]pyrimidin-2-yl}amino)propanenitrile], 5.24 nM.
Take `C[C@H](O)CNc1nccc(-c2cn([C@H]3C[C@@H](F)C3)nc2-c2cnc3[nH]cc(Cl)c3c2)n1` [Example B-84, (S)-1-(4-(3-(3-chloro-1H-pyrrolo[2,3-b]pyridin-5-yl)-1-((1s,3s)-3-fluorocyclobutyl)-1H-pyrazol-4-yl)pyrimidin-2-ylamino)propan-2-ol]: the IC50 stood at 18.7 nM.
Same read-out and setting: to `COc1nc(-c2nn(C(C)(C)C)cc2-c2ccnc(NCCC#N)n2)cnc1N` [Example B-30, 3-({4-[3-(5-amino-6-methoxypyrazin-2-yl)-1-tert-butyl-1H-pyrazol-4-yl]pyrimidin-2-yl}amino)propanenitrile] belongs 0.2 nM.
As to `Clc1c[nH]c2ncc(-c3nn(C4CCNCC4)cc3-c3ccncn3)cc12` [Example B-64, 3-chloro-5-(1-piperidin-4-yl-4-pyrimidin-4-yl-1H-pyrazol-3-yl)-1H-pyrrolo[2,3-b]pyridine], the concentration for half-maximal inhibition (IC50) came out at 61.7 nM.
Regarding `C[C@H](O)CNc1nccc(-c2cn(CC3(C)COC3)nc2-c2cnc3[nH]cc(Cl)c3c2)n1` [Example B-98, (2S)-1-[(4-{3-(3-chloro-1H-pyrrolo[2,3-b]pyridin-5-yl)-1-[(3-methyloxetan-3-yl)methyl]-1H-pyrazol-4-yl}pyrimidin-2-yl)amino]propan-2-ol], the 50% inhibitory concentration (IC50) came to 146 nM.
On to `CC(C)(CO)n1cc(-c2ccnc(NCCC#N)n2)c(-c2cnc3c(c2)CCN3)n1` [Example B-22, 3-({4-[3-(2,3-dihydro-1H-pyrrolo[2,3-b]pyridin-5-yl)-1-(2-hydroxy-1,1-dimethylethyl)-1H-pyrazol-4-yl]pyrimidin-2-yl}amino)propanenitrile], for which the IC50 is 26.3 nM.
As for `COc1cc(-c2nn([C@H]3C[C@H](F)C3)cc2-c2ccnc(NC[C@H](C)O)n2)cnc1N` [Example B-85, (S)-1-(4-(3-(6-amino-5-methoxypyridin-3-yl)-1-((1r,3r)-3-fluorocyclobutyl)-1H-pyrazol-4-yl)pyrimidin-2-ylamino)propan-2-ol], the IC50 stood at 21.9 nM.
Same read-out and setting: the value for `COc1cncc(-c2nn(C(C)(C)CO)cc2-c2ccnc(NCCC#N)n2)c1` [Example B-49, 3-(4-(1-(1-hydroxy-2-methylpropan-2-yl)-3-(5-methoxypyridin-3-yl)-1H-pyrazol-4-yl)pyrimidin-2-ylamino)propanenitrile] was 22.4 nM; that for `Cc1n[nH]c2ncc(-c3nn(C(C)(C)C)cc3-c3ccnc(NCCC#N)n3)cc12` [Example B-71, 3-({4-[1-tert-butyl-3-(3-methyl-1H-pyrazolo[3,4-b]pyridin-5-yl)-1H-pyrazol-4-yl]pyrimidin-2-yl}amino)propanenitrile] was 2.8 nM; that for `CC(C)n1cc(-c2ccnc(NCCC#N)n2)c(-c2cccnc2)n1` [Example B-53, 3-{[4-(1-isopropyl-3-pyridin-3-yl-1H-pyrazol-4-yl)pyrimidin-2-yl]amino}-propanenitrile] was 1320 nM.
In the case of `Cc1c[nH]c2ncc(-c3nn(CC(F)F)cc3-c3ccnc(NC[C@H](C)O)n3)cc12` [Example B-100, (2S)-1-({4-[1-(2,2-difluoroethyl)-3-(3-methyl-1H-pyrrolo[2,3-b]pyridin-5-yl)-1H-pyrazol-4-yl]pyrimidin-2-yl}amino)propan-2-ol], the IC50 turned out to be 4.29 nM.
Still for that read-out and setting: the value for `CC(=O)Nc1cc(C)c(-c2nn(CC(F)F)cc2-c2ccnc(NCCC#N)n2)cn1` [Example B-26, N-{5-[4-{2-[(2-cyanoethyl)amino]pyrimidin-4-yl}-1-(2,2-difluoroethyl)-1H-pyrazol-3-yl]-4-methylpyridin-2-yl}acetamide] was 2200 nM.
For `Cc1c[nH]c2ncc(-c3nn(C(C)(C)C)cc3-c3ccnc(NC[C@H](C)O)n3)cc12` [Example B-66, (2S)-1-({4-[1-tert-butyl-3-(3-methyl-1H-pyrrolo[2,3-b]pyridin-5-yl)-1H-pyrazol-4-yl]pyrimidin-2-yl}amino)propan-2-ol], the IC50 amounted to 2.87 nM.
The same measure, in the same setting: to `C[C@H](O)CNc1nccc(-c2cn(CC(F)F)nc2-c2cnc3c(c2)CCN3)n1` [Example B-102, (2S)-1-({4-[1-(2,2-difluoroethyl)-3-(2,3-dihydro-1H-pyrrolo[2,3-b]pyridin-5-yl)-1H-pyrazol-4-yl]pyrimidin-2-yl}amino)propan-2-ol] belongs 509 nM; to `C[C@H](O)CNc1nccc(-c2cn(CC(F)F)nc2-c2cnc3[nH]cc(F)c3c2)n1` [Example B-101, (2S)-1-({4-[1-(2,2-difluoroethyl)-3-(3-fluoro-1H-pyrrolo[2,3-b]pyridin-5-yl)-1H-pyrazol-4-yl]pyrimidin-2-yl}amino)propan-2-ol], 107 nM.
In the case of `Cc1c[nH]c2ncc(-c3nn(C4CCN(C)CC4)cc3-c3ccnc(NCC(F)F)n3)cc12` [Example B-113, N-(2,2-difluoroethyl)-4-[1-(1-methylpiperidin-4-yl)-3-(3-methyl-1H-pyrrolo[2,3-b]pyridin-5-yl)-1H-pyrazol-4-yl]pyrimidin-2-amine], the IC50 came out at 1.48 nM.
In the case of `COc1cc(-c2nn(C3CC3)cc2-c2ccnc(NCCC#N)n2)cnc1N` [Example B-57, 3-({4-[3-(6-amino-5-methoxypyridin-3-yl)-1-cyclopropyl-1H-pyrazol-4-yl]pyrimidin-2-yl}amino)-propanenitrile], the IC50 stood at 2.95 nM.
